# Source: patent publication US8461107B2 (Merck Sharp & Dohme Corp., priority 2008, dated 2013)
# Target: T1, HCV genotype 1b (BK) NS3 modified with a R155K mutation (Hepatitis C virus genotype 1b, UniProt P26663, R1181K)
# T1 construct: HCV genotype 1b (BK) NS3 modified with a R155K mutation
# Assay: HCV NS3 protease time-resolved fluorescence (TRF) assay, NS3 protease 1b R155K Ki activity
# Format: biochemical
# Conditions: HCV genotype 1b (BK) NS3 with R155K mutation; TRF peptide substrate 100 nM; Ki derived from IC50
# In short: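 Pre-incubation of NS3/NS4A protease (genotype 1b BK, R155K) with inhibitor for 30 min, then 1 h at room temperature with 100 nM TRF peptide substrate in pH 7.5 HEPES buffer with 10 mM DTT. Reaction quenched with pH 5.5 MES; time-resolved fluorescence read (ex 340/em 615 nm). Ki derived from four-parameter IC50 fit via IC50=Ki(1+[S]/KM).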
row,SMILES,Ki
1,"C=C[C@@H]1C[C@]1(NC(=O)[C@@H]1C[C@@H]2CN1C(=O)[C@H](C1CCCC1)NC(=O)O[C@@H]1CCC[C@H]1CCCCCn1c(nc3cc(C(F)(F)F)ccc3c1=O)O2)C(=O)NS(=O)(=O)C1CC1 [(3aR,7S,10S,12R,25aR)-7-cyclopentyl-N-((1R,2S)-1-{[(cyclopropylsulfonyl)amino]carbonyl}-2-vinylcyclopropyl)-5,8,19-trioxo-16-(trifluoromethyl)-1,2,3,3a,5,6,7,8,11,12,21,22,23,24,25,25a-hexadecahydro-10H,19H-9,12-methanocyclopenta[18,19][1,10,3,6,12]dioxatriazacyclononadecino[11,12-b]quinazoline-10-carboxamide]",0.1 to 0.5 nM
2,"C=C[C@@H]1C[C@]1(NC(=O)[C@@H]1C[C@@H]2CN1C(=O)[C@H](C1CCCC1)NC(=O)O[C@@H]1CCC[C@H]1CCCCCn1c(nc3c(OC)cccc3c1=O)O2)C(=O)NS(=O)(=O)C1CC1 [(3aR,7S,10S,12R,25aR)-7-cyclopentyl-N-((1R,2S)-1-{[(cyclopropylsulfonyl)amino]carbonyl}-2-vinylcyclopropyl)-15-methoxy-5,8,19-trioxo-1,2,3,3a,5,6,7,8,11,12,21,22,23,24,25,25a-hexadecahydro-10H,19H-9,12-methanocyclopenta[18,19][1,10,3,6,12]dioxatriazacyclononadecino[11,12-b]quinazoline-10-carboxamide]",< 0.1 nM
3,"C=C[C@@H]1C[C@]1(NC(=O)[C@@H]1C[C@@H]2CN1C(=O)[C@H](C1CCCC1)NC(=O)O[C@@H]1CCC[C@H]1CCCCCn1c(nc3cc(OC)ccc3c1=O)O2)C(=O)NS(=O)(=O)C1CC1 [(3aR,7S,10S,12R,25aR)-7-cyclopentyl-N-((1R,2S)-1-{[(cyclopropylsulfonyl)amino]carbonyl}-2-vinylcyclopropyl)-16-methoxy-5,8,19-trioxo-1,2,3,3a,5,6,7,8,11,12,21,22,23,24,25,25a-hexadecahydro-10H,19H-9,12-methanocyclopenta[18,19][1,10,3,6,12]dioxatriazacyclononadecino[11,12-b]quinazoline-10-carboxamide]",< 0.1 nM
4,"C=C[C@@H]1C[C@]1(NC(=O)[C@@H]1C[C@@H]2CN1C(=O)[C@H](C1CCCC1)NC(=O)O[C@@H]1CCC[C@H]1CCCCCn1c(cc3cc(OC)ccc3c1=O)O2)C(=O)NS(=O)(=O)C1CC1 [(3aR,7S,10S,12R,25aR)-7-cyclopentyl-N-((1R,2S)-1-{[(cyclopropylsulfonyl)amino]carbonyl}-2-vinylcyclopropyl)-16-methoxy-5,8,19-trioxo-1,2,3,3a,5,6,7,8,11,12,21,22,23,24,25,25a-hexadecahydro-10H,19H-9,12-methanocyclopenta[18,19][1,10,3,6,12]dioxatriazacyclononadecino[12,11-b]isoquinoline-10-carboxamide]",< 0.1 nM
5,"C=C[C@@H]1C[C@]1(NC(=O)[C@@H]1C[C@@H]2CN1C(=O)[C@H](C1CCCC1)NC(=O)O[C@@H]1CCC[C@H]1CCCCCn1c(nc3cc(C)ccc3c1=O)O2)C(=O)NS(=O)(=O)C1CC1 [(3aR,7S,10S,12R,25aR)-7-cyclopentyl-N-((1R,2S)-1-{[(cyclopropylsulfonyl)amino]carbonyl}-2-vinylcyclopropyl)-16-methyl-5,8,19-trioxo-1,2,3,3a,5,6,7,8,11,12,21,22,23,24,25,25a-hexadecahydro-10H,19H-9,12-methanocyclopenta[18,19][1,10,3,6,12]dioxatriazacyclononadecino[11,12-b]quinazoline-10-carboxamide]",< 0.1 nM
6,"C=C[C@@H]1C[C@]1(NC(=O)[C@@H]1C[C@@H]2CN1C(=O)[C@H](C1CCCC1)NC(=O)O[C@@H]1CCC[C@H]1CCCCCn1c(cc3ccc(F)cc3c1=O)O2)C(=O)NS(=O)(=O)C1CC1 [(3aR,7S,10S,12R,25aR)-7-cyclopentyl-N-((1R,2S)-1-{[(cyclopropylsulfonyl)amino]carbonyl}-2-vinylcyclopropyl)-17-fluoro-5,8,19-trioxo-1,2,3,3a,5,6,7,8,11,12,21,22,23,24,25,25a-hexadecahydro-10H,19H-9,12-methanocyclopenta[18,19][1,10,3,6,12]dioxatriazacyclononadecino[12,11-b]isoquinoline-10-carboxamide]",< 0.1 nM
7,"C=C[C@@H]1C[C@]1(NC(=O)[C@@H]1C[C@@H]2CN1C(=O)[C@H](C1CCCC1)NC(=O)O[C@@H]1CCC[C@H]1CCCCCn1c(nc3cccc(OC)c3c1=O)O2)C(=O)NS(=O)(=O)C1CC1 [(3aR,7S,10S,12R,25aR)-7-cyclopentyl-N-((1R,2S)-1-{[(cyclopropylsulfonyl)amino]carbonyl}-2-vinylcyclopropyl)-18-methoxy-5,8,19-trioxo-1,2,3,3a,5,6,7,8,11,12,21,22,23,24,25,25a-hexadecahydro-10H,19H-9,12-methanocyclopenta[18,19][1,10,3,6,12]dioxatriazacyclononadecino[11,12-b]quinazoline-10-carboxamide]",0.1 to 0.5 nM
8,"C=C[C@@H]1C[C@]1(NC(=O)[C@@H]1C[C@@H]2CN1C(=O)[C@H](C(C)(C)C)NC(=O)O[C@@H]1CCC[C@H]1CCCCCn1c(cc3cc(Cl)ccc3c1=O)O2)C(=O)NS(=O)(=O)C1CC1 [(3aR,7S,10S,12R,25aR)-7-tert-butyl-16-chloro-N-((1R,2S)-1-{[(cyclopropylsulfonyl)amino]carbonyl}-2-vinylcyclopropyl)-5,8,19-trioxo-1,2,3,3a,5,6,7,8,11,12,21,22,23,24,25,25a-hexadecahydro-10H,19H-9,12-methanocyclopenta[18,19][1,10,3,6,12]dioxatriazacyclononadecino[12,11-b]isoquinoline-10-carboxamide]",< 0.1 nM
9,"CC[C@@H]1C[C@]1(NC(=O)[C@@H]1C[C@@H]2CN1C(=O)[C@H](C(C)(C)C)NC(=O)O[C@@H]1CCC[C@H]1CCCCCn1c(cc3cc(OC)ccc3c1=O)O2)C(=O)NS(=O)(=O)C1CC1 [(3aR,7S,10S,12R,25aR)-7-tert-butyl-N-((1R,2R)-1-{[(cyclopropylsulfonyl)amino]carbonyl}-2-ethylcyclopropyl)-16-methoxy-5,8,19-trioxo-1,2,3,3a,5,6,7,8,11,12,21,22,23,24,25,25a-hexadecahydro-10H,19H-9,12-methanocyclopenta[18,19][1,10,3,6,12]dioxatriazacyclononadecino[12,11-b]isoquinoline-10-carboxamide]",0.1 to 0.5 nM
10,"C=C[C@@H]1C[C@]1(NC(=O)[C@@H]1C[C@@H]2CN1C(=O)[C@H](C(C)(C)C)NC(=O)O[C@@H]1CCC[C@H]1CCCCCn1c(cc3cc(OC)ccc3c1=O)O2)C(=O)NS(=O)(=O)C1CC1 [(3aR,7S,10S,12R,25aR)-7-tert-butyl-N-((1R,2S)-1-{[(cyclopropylsulfonyl)amino]carbonyl}-2-vinylcyclopropyl)-16-methoxy-5,8,19-trioxo-1,2,3,3a,5,6,7,8,11,12,21,22,23,24,25,25a-hexadecahydro-10H,19H-9,12-methanocyclopenta[18,19][1,10,3,6,12]dioxatriazacyclononadecino[12,11-b]isoquinoline-10-carboxamide]",< 0.1 nM
11,"C=C[C@@H]1C[C@]1(NC(=O)[C@@H]1C[C@@H]2CN1C(=O)[C@H](C1CCCC1)NC(=O)O[C@@H]1CCC[C@H]1CCCCCn1c(nc3cc(Br)ccc3c1=O)O2)C(=O)NS(=O)(=O)C1CC1 [(3aR,7S,10S,12R,25aR)-16-bromo-7-cyclopentyl-N-((1R,2S)-1-{[(cyclopropylsulfonyl)amino]carbonyl}-2-vinylcyclopropyl)-5,8,19-trioxo-1,2,3,3a,5,6,7,8,11,12,21,22,23,24,25,25a-hexadecahydro-10H,19H-9,12-methanocyclopenta[18,19][1,10,3,6,12]dioxatriazacyclononadecino[11,12-b]quinazoline-10-carboxamide]",0.1 to 0.5 nM
12,"CC[C@@H]1C[C@]1(NC(=O)[C@@H]1C[C@@H]2CN1C(=O)[C@H](C1CCCCC1)NC(=O)O[C@@H]1CCC[C@H]1CCCCCn1c(cc3cc(Cl)ccc3c1=O)O2)C(=O)NS(=O)(=O)C1CC1 [(3aR,7S,10S,12R,25aR)-16-chloro-7-cyclohexyl-N-((1R,2R)-1-{[(cyclopropylsulfonyl)amino]carbonyl}-2-ethylcyclopropyl)-5,8,19-trioxo-1,2,3,3a,5,6,7,8,11,12,21,22,23,24,25,25a-hexadecahydro-10H,19H-9,12-methanocyclopenta[18,19][1,10,3,6,12]dioxatriazacyclononadecino[12,11-b]isoquinoline-10-carboxamide]",0.1 to 0.5 nM
13,"C=C[C@@H]1C[C@]1(NC(=O)[C@@H]1C[C@@H]2CN1C(=O)[C@H](C1CCCCC1)NC(=O)O[C@@H]1CCC[C@H]1CCCCCn1c(cc3cc(Cl)ccc3c1=O)O2)C(=O)NS(=O)(=O)C1CC1 [(3aR,7S,10S,12R,25aR)-16-chloro-7-cyclohexyl-N-((1R,2S)-1-{[(cyclopropylsulfonyl)amino]carbonyl}-2-vinylcyclopropyl)-5,8,19-trioxo-1,2,3,3a,5,6,7,8,11,12,21,22,23,24,25,25a-hexadecahydro-10H,19H-9,12-methanocyclopenta[18,19][1,10,3,6,12]dioxatriazacyclononadecino[12,11-b]isoquinoline-10-carboxamide]",< 0.1 nM
14,"CC[C@@H]1C[C@]1(NC(=O)[C@@H]1C[C@@H]2CN1C(=O)[C@H](C1CCCC1)NC(=O)O[C@@H]1CCC[C@H]1CCCCCn1c(nc3cc(Cl)ccc3c1=O)O2)C(=O)NS(=O)(=O)C1CC1 [(3aR,7S,10S,12R,25aR)-16-chloro-7-cyclopentyl-N-((1R,2R)-1-{[(cyclopropylsulfonyl)amino]carbonyl}-2-ethylcyclopropyl)-5,8,19-trioxo-1,2,3,3a,5,6,7,8,11,12,21,22,23,24,25,25a-hexadecahydro-10H,19H-9,12-methanocyclopenta[18,19][1,10,3,6,12]dioxatriazacyclononadecino[11,12-b]quinazoline-10-carboxamide]",0.1 to 0.5 nM
